# Experimental data reported in a melting point compilation (Tetko et al.; mined from patent text by program, amines drawn as free bases though some values may be those of a salt).
row,SMILES,melting point
1,COCc1ccc(C(=O)OC)cn1,33 °C
2,CCO/C(=N/O)C1Cc2cc(C(=O)c3ccccc3F)c(O)c(Cl)c2O1 (stereo not given),171 to 172 °C
3,CC(C)N1C(=O)CC(C(=O)O)C1c1ccccc1 (stereo not given),126 to 134 °C
4,OC(CCCl)COc1ccc(-c2ccccc2)cc1 (stereo not given),123 to 124 °C
5,c1cncc(NC2CCNCC2)c1,127 to 129 °C
6,CC(CCCNC(=O)CCCCCBr)C(F)(F)F (stereo not given),96 to 98 °C
7,CN1CC=C(c2c[nH]c3ccc(C4CN=CS4)cc23)CC1 (stereo not given),260 to 263 °C
8,COc1cc(Nc2nccc(-c3ccc(OCCCN)cc3)n2)cc(OC)c1OC,161 to 162 °C
9,CCC1(O)CC(OC2CC(N(C)C)C(OC3CC(O)C(O)C(C)O3)C(C)O2)c2c(cc3c(c2O)C(=O)c2c(O)ccc(O)c2C3=O)C1C(=O)OC (stereo not given),162 to 163 °C
10,COc1ccc(CCN(C)CCCOc2ccc(NC(=O)c3cccc4c(=O)c5ccccc5[nH]c34)cc2)cc1OC,140 °C
11,CCCS(=O)(=O)c1ccc2c(c1)C(=O)CC2,100 °C
12,CC1(C)COS(=O)(=O)OC1,80 to 82 °C
13,CCN1CC(=O)N(c2cc(F)ccc2C)C1=S,98 to 100 °C
14,O=C1c2ccc(N3CCCC3)c3cc(Br)cc(c23)C(=O)N1O,234 to 235 °C
15,NC(=O)[C@@H]1CCCN1C(=O)/C=C/Sc1ccccc1,50 to 54 °C
16,O=C(NCC1CCc2n[nH]cc2C1)[C@@H]1CCCN1C(=O)[C@@H](CC1CCCCC1)NS(=O)(=O)Cc1ccccc1 (stereo not given in full),100 to 103 °C
17,N#Cc1cc(-c2c3ccccc3cc3sc4ccccc4c23)cc(C#N)c1O,274 to 276 °C
18,COC(=O)c1cc2c(nc1C1=NC(C)(C(C)C)C(=O)N1)CCOC2 (stereo not given),208 to 220 °C
19,ClCCc1cc(-c2ccc(Cl)cc2)n(-c2ccc(OCc3ccc4ccccc4n3)cc2)n1,105 °C
20,CCOC(=O)C(C)(C(=O)Nc1cc(Cl)cc(Cl)c1)S(C)=O (stereo not given),124 to 127 °C
21,CC(C)(C)OC(=O)c1ncn2c1C1CCCN1C(=O)c1cnccc1-2 (stereo not given),217 to 218 °C
22,CC(=O)OCC(=O)NCc1ccc(-c2csc(N)n2)s1,149 to 150 °C

row,SMILES,melting point
1,O=C(Nc1ccc(Br)cc1-c1noc(=O)[nH]1)c1cccc(S(=O)(=O)N2CCOCC2)c1,220 to 223 °C
2,CCCCCCC/C=C/C(=O)Nc1ccccc1,54 to 55 °C
3,CC(C)Cn1c(CNC(=O)OC(C)(C)C)c(-c2ccc(F)cc2)c2cc(O)ccc2c1=O,229 to 230 °C
4,CC(=O)NCCCc1cccc2c1CC(CCCCc1ccccc1)O2 (stereo not given),40 to 41 °C
5,COC(=O)CC(=O)C1CCC2C3CCC4CC(O)CCC4(C)C3C(=O)CC12C (stereo not given),150 to 152 °C
6,COc1ccc(S(=O)(=O)Nc2cccc3cn[nH]c23)cc1,155 to 156 °C
7,CC(=O)Nc1cc(C)c2c(c1O)C(=O)CC2,193 to 198 °C
8,O=C(CNC(=O)OCc1ccccc1)NCC1CCCCC1,95 to 98 °C
9,O=C1C=CC(OC2CCCCC2)N1S(=O)(=O)c1ccccc1 (stereo not given),104 to 106 °C
10,Cn1nc(-c2ccccc2S(N)(=O)=O)oc1=O,168 to 173 °C
11,O=C(O)c1ccc2nc3ccc(C(=O)O)nn3c(=O)c2c1,> 285 °C
12,N[C@@H](Cc1cccc(OCC(F)(F)F)c1)[C@H](O)c1ccc(F)cc1 (racemic),94 to 95 °C
13,O=S(=O)(CCl)Nc1ccnn1-c1c(Cl)cc(C(F)(F)F)cc1Cl,63 to 66 °C
14,CCC1(SC)CCC2C3CCC4=CC(=O)C=CC4(C)C3(F)C(O)CC21C (stereo not given),252 to 254 °C
15,CC(C)Cn1c(CNC(=O)OC(C)(C)C)c(-c2ccccc2)c2cc(OCc3ccccc3)ccc2c1=O,141 to 142 °C
16,O=c1oc(-c2ccccc2)cc(O)c1C(SC1CCCC1)C1CCCC1 (stereo not given),139 to 142 °C
17,CCCCOC(=O)NCCC(=O)O,50.5 °C
18,CCOC(C)OCC(C)C1CCC2C3CC=C4CC(O)CC(O)C4(C)C3CCC12C (stereo not given),124 to 126 °C
19,Cc1ccc(-c2[nH]nc3c2C(=O)c2c(NC(N)=O)cccc2-3)s1,> 280 °C
20,CSc1nc2ccc(CCc3nc4cc(C)ccn4c3C)cc2o1,106 to 107 °C
21,COc1ccc2nc3ccc(C#N)cn3c(=O)c2c1,284 to 285 °C
22,CNS(=O)(=O)c1ccc(C2=C(c3cccc(F)c3)C(=O)C(C)(C)O2)cc1,176 to 177 °C

row,SMILES,melting point
1,COc1ccc(N(C(=O)CN2C(=O)C(Cc3cc(C)n[nH]3)C(=O)N(c3ccccc3)c3ccccc32)C(C)C)cc1 (stereo not given),156 to 159 °C
2,O=C(O)c1ccc2cc(OCCOc3ccc4c(CCO)c(C(=O)O)c(CCO)cc4c3)ccc2c1,240 °C
3,C[C@@H](Cn1ncc2ccc(O)c(C=O)c21)NC(=O)OCc1ccccc1,135 to 137 °C
4,COc1cc(NC(C)=O)c(Cl)cc1C(=O)NN1CCN(CCC(C)C)CC1,128 to 130 °C
5,O=c1ccc(-c2cc(Cl)c(O)c(Cl)c2)n[nH]1,> 300 °C
6,O=C(Cl)c1ccc(C(c2ccc(C(=O)Cl)cc2)(C(F)(F)F)C(F)(F)F)cc1,96 to 97 °C
7,CCOC(=O)c1ccc(-c2coc(-c3cccc(C(F)(F)F)c3)n2)cc1,132 to 133 °C
8,CC1Cc2cc3c(cc2C(C=Cc2cccc(Cl)c2)=NN1)OCO3 (stereo not given),114 to 117 °C
9,CC1CCN(c2c(-c3ccc(F)cc3Cl)c(C#N)nc3ncnn23)CC1,247 °C
10,COc1cc(-c2cccc(Cl)c2)c2cc(C(O)(c3ccc(Cl)cc3)c3cncn3C)cc(NC(C)=O)c2n1 (stereo not given),143 °C
11,COC(=O)CCc1cc(C)on1,54 to 55 °C
12,CS(=O)(=O)c1ccc2c(c1)C(=O)Cc1ccccc1O2,105 to 106 °C
13,CC[C@@H](c1ccccc1)N(Cc1ccc(C(=O)O)cc1OC)S(=O)(=O)c1ccc(Cl)cc1,176 to 178 °C
14,CCCOc1ccc2c(c1)C(c1ccc(OC)cc1-c1cccc(C(=O)O)c1)C(C(=O)O)C2c1ccc2c(c1)OCO2 (stereo not given),257 to 268 °C
15,CC(=O)c1cc2c(Br)cccc2n1S(=O)(=O)c1ccccc1,142 to 146 °C
16,CC(C)N(C1CCCCC1)S(=O)(=O)N[C@@H](Cc1ccc(Oc2nccc3cnccc23)cc1)C(=O)O,138 °C
17,O=C(CCl)NC1CCCc2sccc21 (stereo not given),115 to 119 °C
18,CS(=O)(=O)c1ccc(-n2nc(C(F)(F)F)nc2-c2ccc(Br)cc2)nn1,174 to 181 °C
19,CS(=O)(=O)C(=C1CN(C(c2ccccc2)c2ccccc2)C1)c1cccc(Br)c1,200 °C
20,COCCOC/C(=C\S(=O)(=O)c1ccc(C)cc1)C(=O)OC(C)(C)C,40 to 41 °C
21,COc1ccc(-c2cc(C)c(C(=O)NCCCCc3cccnc3)c(C)c2)cc1OC,117 to 119 °C
22,O=Cc1cccc(-c2cccs2)n1,48 to 50 °C

# Continued, values first:
row,melting point,SMILES
1,123 to 124 °C,O=C(SC1CCC1C(=O)N1CCC[C@H]1C(=O)O)c1ccccc1 (stereo not given in full)
2,226 to 228 °C,COC(=O)C1=C(COCCn2c(C)nc(C)c2C)Nc2c(c(=O)n(C)c(=O)n2C)C1c1ccccc1Cl (stereo not given)
3,160 to 161 °C,COCn1ccnc1C(O)(c1ccc(C(F)(F)F)cc1)c1ccc(C(F)(F)F)cc1
4,98 to 115 °C,COC(=O)CCc1cc2nc(C)ccc2n1S(=O)(=O)c1ccccc1
5,55 to 57 °C,CCN(CC)C(=O)C(C)n1cc(C)c(-c2ccccc2)n1 (stereo not given)
6,118 to 119 °C,Oc1ccc(CCNC[C@H](O)COc2ccccc2)cc1
7,111 °C,CC(=O)CC(=O)NC1CCC(C)CC1 (stereo not given)
8,96 to 98 °C,COC(=O)C1(n2c(=O)c3ccccc3n(CCCCBr)c2=O)CCCC1
9,151 to 152 °C,CS(=O)c1nnc(-c2ccc3occ(-c4cc(F)ccc4F)c3c2)o1 (stereo not given)
10,143 to 144 °C,CCS(=O)(=O)N(C)C1c2cc(F)c(Cl)cc2OC(C)(C)C1OC(C)=O (stereo not given)
11,161 °C,COC(=O)[C@H]1OC(OC(=O)c2ccc(/C=C(\C)c3ccc4c(c3)C(C)(C)CCC4(C)C)cc2)[C@H](OC(C)=O)[C@@H](OC(C)=O)[C@@H]1OC(C)=O (stereo not given in full)
12,125 to 127 °C,CCCc1c(O)c(C(C)=O)cc2c(C)cc(C(=O)O)nc12
13,204 to 205 °C,O=C1Cc2cc(C(=O)c3ccccc3)ccc2N1
14,233 to 238 °C,CS(=O)(=O)c1ccc2nc(N)[nH]c2c1
15,> 230 °C,O=C(O)C(=Cc1c[nH]c2ncccc12)c1ccccc1
16,228 to 230 °C,COC(=O)c1ccc(C(=O)NS(=O)(=O)c2ccc(C(=O)NCCc3ccccc3)cc2)cn1
17,209 °C,COc1cc(Nc2nccc(-c3cccc(OCCCN4C(=O)c5ccccc5C4=O)c3)n2)cc(OC)c1OC

row,melting point,SMILES
1,194 to 195 °C,CC(C)n1c(C=O)c(-c2ccc(F)cc2)c(-c2ccc(F)cc2)c1C(=O)Nc1ccc(S(N)(=O)=O)cc1
2,173 to 174 °C,Cc1sc(-c2ccc(F)cc2)nc1O
3,90 to 91 °C,O=C1CC(=Cc2c[nH]c3ccccc23)C(=O)O1
4,> 250 °C,CCc1ccc(Nc2nc3cc(NC(=O)c4ccc(Cl)cc4)ccc3o2)cc1
5,164 to 165 °C,N#CN=C(Nc1ccc(C#N)c(Br)c1O)Nc1cccc2c1OCO2
6,93 to 94 °C,ICCC12CC3CC(CC(C3)C1)C2
7,158 to 162 °C,COC(=O)COc1ccc(CC2SC(=O)N(C(c3ccccc3)(c3ccccc3)c3ccccc3)C2=O)cc1 (stereo not given)
8,260 °C,CCCC(=O)Nc1n[nH]c2c([N+](=O)[O-])c(Br)c([N+](=O)[O-])cc12
9,208 to 210 °C,CC1(C)C(=O)N(c2ccccc2)C(=S)N1c1ccc(OCc2ccccc2)cc1
10,125 to 127 °C,CS(=O)(=O)c1ccc(Oc2ccccc2CC(=O)O)cc1
11,83 to 86 °C,CCCN(CCC)CCOc1ccc(Cn2c(-c3ccc(O)cc3)c(C)c3cc(O)ccc32)cc1
12,115 to 117 °C,CC1(C(=O)Nc2ccc(Oc3ccc(Cl)cc3)c(C(F)(F)F)c2)CC1
13,236 °C,CCN(CC)C(=O)c1c(C(C)(O)c2cc3cnccc3n2S(=O)(=O)c2ccccc2)ccnc1OC (stereo not given)
14,148 to 149 °C,CC1(C)CC(O)CC2(C)OC(=O)C=C12 (stereo not given)
15,99 to 102 °C,CSc1nc(Cc2ccccc2N)n[nH]1
16,88 to 90 °C,CNC(=S)NS(=O)(=O)C(F)(F)F
17,240 °C,CN=C(NC#N)N1CCc2[nH]cnc2C1
